We go through 19 molecules from patent US9522920B2, “Bromodomain inhibitors and uses thereof” (Constellation Pharmaceuticals, Inc., priority 2010, dated 2016).

The test system of test [1] is IL-6 secretion. As to the kind of experiment: Cell-based IL-6 quantification assay (ELISA, Mesoscale) in LPS-stimulated THP-1 cells. The note with it: Table 7, THP-1 cells, LPS 4 μg/mL, 16 h, normalised to CellTiter-Glo, read-out: IL6. The method, then:
100,000 THP-1 cells were seeded in RPMI1640-10% FBS in 96-well plates. LPS (E. Coli Invitrogen) in RPMI-10% FBS at a final concentration of 4 μg/mL was added to the wells and the cells are then incubated in the presence of various concentrations of compounds for 16 h. Plates are spun ([…], 5 min), an aliquot of 25 uL supernatant is transferred in to an ELISA plate (Mesoscale technology, MSD) and the detection of IL-6 is performed using manufacturer's instructions. The amount of cells in each well is assessed using CellTiter-Glo® (Promega). The ratio of ELISA value/CellTiter-Glo value is used to calculate the percent of inhibition of IL-6 secretion.

Test [2] has as its system MYC mRNA. Briefly: cMyc RNA quantification assay (QuantiGene) in Raji cells. The note with it: Table 7, Raji (Burkitt's lymphoma) cells, 4 h. In kind it is cell-based. The method, then: MV4:11 (AML) or Raji (Burkitt's lymphoma) cells were seeded in a 96-well plate and incubated in the presence of various concentrations of compounds for 4 h. Relative mRNA levels were quantitated by using QuantiGene 2.0 assay (Affymetrix) according to the manufacturer's recommendation. Signals were detected by using an Envision plate reader (Perkin-Elmer). Biological duplicates were averaged and normalized to vehicle (DMSO) control to calculate percent MYC mRNA levels.

In test [3] the target is T1, BRD4(BD1) (Homo sapiens, UniProt O60885).
T1 construct: His; made in house
As to the kind of experiment: BRD4 AlphaLisa binding assay (Alphascreen). To be noted: Table 6; BRD4(BD1) 30 nM, H4-tetraacetyl peptide 200 nM; read-out: BRD4 Alphascreen IC50. As to the method:
Specifically, in a 384 well ProxiPlate BRD4(BD1) (30 nM final) was combined with peptide (200 nM final) in 40 mM HEPES (pH 7.0), 40 mM NaCl, 1 mM DTT, 0.01% (w/v) BSA, and 0.008% (w/v) Brij-35 either in the presence of DMSO (final 1.2% DMSO) or compound dilution series in DMSO. After 20 minute incubation at room temperature Alpha streptavidin donor beads and AlphaLisa anti-Flag acceptor beads were added to a final concentration of 10 ug/mL each. After three hours equilibration plates were read on an Envision instrument and IC50s calculated using a four parameter non-linear curve fit.
A general note: Bead proximity is the source of the signal in Alpha formats.

pIC50: −log10 of the molar value. Like-named read-outs stand apart in the source and are kept apart here.

Turning to `Cc1noc2c1-c1sc(C)c(C)c1C(c1ccc(C#N)cc1)=NC2CC(N)=O` (stereo not drawn) [Compound 115], the pIC50 in test [1] (Homo sapiens, THP-1, 16 h) was more than 6.30; in test [2] (Homo sapiens), more than 6.30; in test [3], more than 6.30.
For the molecule `Cc1noc2c1-c1sc(C)c(C)c1C(c1ccc(C(N)=O)cc1)=NC2CC(N)=O` (stereo not drawn) [Compound 116], the pIC50 in test [1] (Homo sapiens, THP-1, 16 h) was more than 6.30; in test [2] (Homo sapiens) it was more than 6.30; in test [3], more than 6.30.
Turning to `CC(=O)Nc1ccc(C2=NC(CC(N)=O)c3onc(C)c3-c3sc(C)c(C)c32)cc1` (stereo not drawn) [Compound 118], the pIC50 was more than 6.30 in test [1] (Homo sapiens, THP-1, 16 h); more than 6.30 in test [2] (Homo sapiens); more than 6.30 in test [3].
Regarding `Cc1noc2c1-c1sc(C)c(C)c1C(c1ccc(=O)n(C)c1)=NC2CC(N)=O` (stereo not drawn) [Compound 120], the pIC50 was more than 6.30 in test [1] (Homo sapiens, THP-1, 16 h); 6.00 to 6.30 in test [2] (Homo sapiens); more than 6.30 in test [3].
`CCCC1=NC(CC(N)=O)c2onc(C)c2-c2sc(C)c(C)c21` (stereo not drawn) [Compound 124]: the pIC50 in test [1] (Homo sapiens, THP-1, 16 h) was 6.00 to 6.30; in test [2] (Homo sapiens), less than 6.00; in test [3], more than 6.30.
Taken in the same sequence, the figures for `Cc1noc2c1-c1sc(C)c(C)c1C(C1CCCCC1)=NC2CC(N)=O` (stereo not drawn) [Compound 126] were more than 6.30, less than 6.00 and more than 6.30.
In the case of `Cc1cccc2c1C(c1ccncc1)=N[C@@H](CC(N)=O)c1onc(C)c1-2` [Compound 131], the pIC50 in test [1], in test [2] and in test [3] was more than 6.30 throughout.
On to `Cc1cccc2c1C(c1ccc(Cl)cn1)=N[C@@H](CC(N)=O)c1onc(C)c1-2` [Compound 133], for which the pIC50 was more than 6.30 in test [1], 6.00 to 6.30 in test [2] and more than 6.30 in test [3].
Consider `Cc1cccc2c1C(c1ccc(C(N)=O)cc1)=N[C@@H](CC(N)=O)c1onc(C)c1-2` [Compound 134], for which the pIC50 in test [1] was more than 6.30; in test [2], 6.00 to 6.30; in test [3] it was more than 6.30.
`COc1ccc(C2=N[C@@H](CC(N)=O)c3onc(C)c3-c3cccc(C)c32)cc1` [Compound 135]: the pIC50 in test [1], in test [2] and in test [3] was more than 6.30 in each case.
Consider `Cc1noc2c1-c1cccc(Cl)c1C(c1ccncc1)=N[C@H]2CC(N)=O` [Compound 137], for which the pIC50 in test [1] (Homo sapiens, THP-1, 16 h) was more than 6.30; in test [2] (Homo sapiens) it was 6.00 to 6.30; in test [3] it was more than 6.30.
On to `Cc1noc2c1-c1cccc(Cl)c1C(c1ccc(F)cc1)=N[C@H]2CC(N)=O` [Compound 138], for which the pIC50 in test [1], in test [2] and in test [3] was more than 6.30 throughout.
On to `Cc1noc2c1-c1cccc(Cl)c1C(c1ccc(C#N)cc1)=N[C@H]2CC(N)=O` [Compound 140], for which the pIC50 in test [1], in test [2] and in test [3] was more than 6.30 in each case.
`Cc1noc2c1-c1ccc(Cl)cc1C(c1ccc(Cl)cc1)=N[C@H]2CC(N)=O` [Compound 141]: the pIC50 in test [1] was more than 6.30; in test [2], less than 6.00; in test [3] it was more than 6.30.
In the case of `Cc1noc2c1-c1ccc(Cl)cc1C(c1ccc(C#N)cc1)=N[C@H]2CC(N)=O` [Compound 142], the pIC50 is more than 6.30 in test [1], 6.00 to 6.30 in test [2] and more than 6.30 in test [3].
With `CCNC(=O)C[C@@H]1N=C(c2ccc(C#N)cc2)c2cc(Cl)ccc2-c2c(C)noc21` [Compound 143], the pIC50 is more than 6.30 in test [1], 6.00 to 6.30 in test [2] and more than 6.30 in test [3].
As to `COc1ccc(C2=N[C@@H](CC(N)=O)c3onc(C)c3-c3ccccc32)cc1` [Compound 146], the pIC50 in test [1] (Homo sapiens, THP-1, 16 h) was more than 6.30; in test [2] (Homo sapiens), more than 6.30; in test [3] it was more than 6.30.
`COc1cccc(C2=N[C@@H](CC(N)=O)c3onc(C)c3-c3ccccc32)c1` [Compound 147]: the pIC50 is more than 6.30 in test [1], 6.00 to 6.30 in test [2] and more than 6.30 in test [3].
For the molecule `CCNC(=O)C[C@@H]1N=C(c2ccc(C#N)cc2)c2ccccc2-c2c(C)noc21` [Compound 149], the pIC50 in test [1], in test [2] and in test [3] was more than 6.30 throughout.
